Source: patent US20230416262A1, “TRPML MODULATORS” (Casma Therapeutics, Inc., priority 2020, published 2023)
pEC50: −log10 of the molar value.

Test system: THP-1 cells
Assay: Lamp1 lysosomal exocytosis assay
Assay type: cell-based
Settings: Homo sapiens, 55 min, 55 min incubation, top dose 20 μM
Description: For the Lamp1 lysosomal exocytosis assay, a human monocytic suspension cell line (THP-1) was used. Cells in culture should be used between a density of […] and 1.2e6/mL on the day of the assay. For each 96-well assay plate to be used, pellet 11e6 THP-1 cells at 330×g for 5 min in a 50 mL conical tube, aspirate media and resuspend in 22 mLs of RPMI 1640/10% FBS media for a final cell concentration of 5e5/mL. Prior to addition of cells to the assay plate, perform a 7 pt dilution curve using a top dose of compound at 2 mM and use a 3-fold serial dilution, the 8th point is DMSO only. Final top dose of compound in the assay was 20 μM. 2 μL of each serial dilution was transferred to a new 96-well v-bottom assay plate. 198 μL of cells (1e5 total cells/well) was prepared as above in each well of the assay plate and incubated at 37° C./5% CO2/95% RH for 55 min. After the 55 min incubation, cells were pelleted for 5 min at 4 C at 400×g in a tabletop centrifuge. The media was separated from the cell pellets in the plate. The pellets were washed using 200 μL ice cold buffer (PBS Ca^++/Mg^++ containing 2% final BSA and 80 μM final Dynasore). Cells were pelleted again at 400×g-5 min in a 4° C. tabletop centrifuge. Buffer was separated from cells. Each well was suspended in 75 uL Lamp1-PE antibody buffer (PBS Ca^++/Mg^++ containing 2% final BSA with 80 uM final Dynasore and 1:800 final dilution of Lamp 1-PE labeled antibody). After a 45 min antibody incubation on ice, 25 μL of sytox green was added (I drop/mL buffer), and each well was mixed and incubated for an additional 15 min on ice. After the 15 min sytox green incubation, 100 μL of ice-cold buffer (PBS Ca^++/Mg^++ containing 2% final BSA and 80 uM final Dynasore) was added and cells were pelleted for 5 min at 400×g. The buffer was removed and each sample was resuspended in 100 uL of ice-cold buffer (PBS Ca^++/Mg^++ containing 2% final BSA and 80 μM final Dynasore). FACs gating strategy: FACS analyze for sytox green (A488) and Lamp1-PE (DsRed). First gate against FSC-A/SSC-A to find non-fragmented or ‘live’ THP-1 cells. Next gate against FITC-A/FSC-A to omit sytox green positive cells. Then gate for FSC-A/FSC-H to remove any doublet cells. The last gate was a histogram for PE. The statistics for ‘count’ and ‘geometric mean fluorescence intensity’ (gWFI) for PE were repoted on the last gate.
Compounds having an activity designated as “++++” provided an exocytosis readout of ≤0.50 μM; compounds having an activity designated as “+++” provided an exocytosis readout of 0.51-1.00 μM; compounds having an activity designated as “++” provided an exocytosis readout of 1.01-5.00 μM; and compounds having an activity designated as “+” provided an exocytosis readout of ≥5.01 μM

pEC50 | Structure (SMILES)
≤ 5.30 | O=C(NCC1CCOCC1)N1CCC2(CC1)CN(S(=O)(=O)c1ccc(C(F)F)cc1)c1ccccc12 [Compound I-215, 1-((4-(difluoromethyl)phenyl)sulfonyl)-N-((tetrahydro-2H-pyran-4-yl)methyl)spiro[indoline-3,4′-piperidine]-1′-carboxamide]
5.30 to 6.00 | O=C(OCc1cnoc1)N1CCC2(CC1)CN(S(=O)(=O)c1ccc(C(F)F)cc1)c1ccccc12 [Compound I-173, isoxazol-4-ylmethyl 1-((4-(difluoromethyl)phenyl)sulfonyl)spiro[indoline-3,4′-piperidine]-1′-carboxylate]
≤ 5.30 | O=C(NC1CCOCC1)N1CCC2(CC1)CN(S(=O)(=O)c1ccc(C(F)F)cc1)c1ccccc12 [Compound I-205, 1-((4-(difluoromethyl)phenyl)sulfonyl)-N-(tetrahydro-2H-pyran-4-yl)spiro[indoline-3,4′-piperidine]-1′-carboxamide]
≤ 5.30 | CN(C(=O)C1CCC2(CC1)CN(S(=O)(=O)c1ccc(C(F)F)cc1)c1ccccc12)c1nccn1C (stereo not shown) [Compound I-245, 1′-((4-(difluoromethyl)phenyl)sulfonyl)-N-methyl-N-(1-methyl-1H-imidazol-2-yl)spiro[cyclohexane-1,3′-indoline]-4-carboxamide]
≥ 6.30 | O=C(OCc1ccccc1)N1CCC2(CC1)CN(S(=O)(=O)c1ccc3c(c1)COC3)c1ccccc12 [Compound I-183, benzyl 1-((1,3-dihydroisobenzofuran-5-yl)sulfonyl)spiro[indoline-3,4′-piperidine]-1′-carboxylate]
6.00 to 6.29 | CCn1cc(COC(=O)N2CCC3(CC2)CN(S(=O)(=O)c2ccc(C(F)F)cc2)c2ccccc23)cn1 [Compound I-171]
≤ 5.30 | O=C(C1CCC2(CC1)CN(S(=O)(=O)c1ccc(C(F)F)cc1)c1ccccc12)N1CCC2(COC2)C1 (stereo not shown) [Compound I-244, (1′-((4-(difluoromethyl)phenyl)sulfonyl)spiro[cyclohexane-1,3′-indolin]-4-yl)(2-oxa-6-azaspiro[3.4]octan-6-yl)methanone]
≤ 5.30 | O=C(NC1CC(F)(F)C1)N1CCC2(CC1)CN(S(=O)(=O)c1ccc(C(F)F)cc1)c1ccccc12 [Compound I-206, N-(3,3-difluorocyclobutyl)-1-((4-(difluoromethyl)phenyl)sulfonyl)spiro[indoline-3,4′-piperidine]-1′-carboxamide]
≤ 5.30 | O=C(CC1CCCO1)N1CCC2(CC1)CN(S(=O)(=O)c1ccc(C(F)F)cc1)c1ccccc12 (stereo not shown) [Compound I-256, 1-(1-((4-(difluoromethyl)phenyl)sulfonyl)spiro[indoline-3,4′-piperidin]-1′-y1)-2-(tetrahydrofuran-2-yl)ethan-1-one]
≤ 5.30 | O=C(C1CCC2(CC1)CN(S(=O)(=O)c1ccc(C(F)F)cc1)c1ccccc12)N1CCC(F)(F)CC1 (stereo not shown) [Compound I-239, (1′-((4-(difluoromethyl)phenyl)sulfonyl)spiro[cyclohexane-1,3′-indolin]-4-yl)(4,4-difluoropiperidin-1-yl)methanone]
≤ 5.30 | O=C(Nc1cccnc1)N1CCC2(CC1)CN(S(=O)(=O)c1ccc(C(F)F)cc1)c1ccccc12 [Compound I-198, 1-((4-(difluoromethyl)phenyl)sulfonyl)-N-(pyridin-3-yl)spiro[indoline-3,4′-piperidine]-1′-carboxamide]
≤ 5.30 | O=S(=O)(c1ccc(C(F)F)cc1)N1CC2(CCC(F)(F)CC2)c2ccccc21 [Compound I-138, 1′-[4-(difluoromethyl)benzenesulfonyl]-4,4-difluoro-1′,2′-dihydrospiro[cyclohexane-1,3′-indole]]
≤ 5.30 | O=S1(=O)CCC2(CC1)CN(S(=O)(=O)c1ccc(C(F)F)cc1)c1ccccc12 [Compound I-152, 1-((4-(difluoromethyl)phenyl)sulfonyl)-2′,3′,5′,6′-tetrahydrospiro[indoline-3,4′-thiopyran] 1′,1′-dioxide]
≤ 5.30 | Cc1noc(C)c1NC(=O)N1CCC2(CC1)CN(S(=O)(=O)c1ccc(C(F)F)cc1)c1ccccc12 [Compound I-213, 1-((4-(difluoromethyl)phenyl)sulfonyl)-N-(3,5-dimethylisoxazol-4-yl)spiro[indoline-3,4′-piperidine]-1′-carboxamide]
≤ 5.30 | Cn1cc(NC(=O)N2CCC3(CC2)CN(S(=O)(=O)c2ccc(C(F)F)cc2)c2ccccc23)c(=O)n(C)c1=O [Compound I-229, 1-((4-(difluoromethyl)phenyl)sulfonyl)-N-(1,3-dimethyl-2,4-dioxo-1,2,3,4-tetrahydropyrimidin-5-yl)spiro[indoline-3,4′-piperidine]-1′-carboxamide]
≤ 5.30 | O=C(C1CCC2(CC1)CN(S(=O)(=O)c1ccc(C(F)F)cc1)c1ccccc12)N1CCCC1 (stereo not shown) [Compound I-237, (1′-((4-(difluoromethyl)phenyl)sulfonyl)spiro[cyclohexane-1,3′-indolin]-4-yl)(pyrrolidin-1-yl)methanone]
≤ 5.30 | O=C(NC1CCOC1)N1CCC2(CC1)CN(S(=O)(=O)c1ccc(C(F)F)cc1)c1ccccc12 (stereo not shown) [Compound I-195, 1-((4-(difluoromethyl)phenyl)sulfonyl)-N-(tetrahydrofuran-3-yl)spiro[indoline-3,4′-piperidine]-1′-carboxamide]
≤ 5.30 | O=C(OCc1ccccc1)N1CCC2(CC1)CN(C(=O)c1ccc(C(F)F)cc1)c1ccccc12 [Compound I-185, benzyl 1-(4-(difluoromethyl)benzoyl)spiro[indoline-3,4′-piperidine]-1′-carboxylate]
≤ 5.30 | O=C(CCC1CCOC1)N1CCC2(CC1)CN(S(=O)(=O)c1ccc(C(F)F)cc1)c1ccccc12 (stereo not shown) [Compound I-253, 1-(1-((4-(difluoromethyl)phenyl)sulfonyl)spiro[indoline-3,4′-piperidin]-1′-y1)-3-(tetrahydrofuran-3-yl)propan-1-one]
≤ 5.30 | O=C(NCCn1cccn1)N1CCC2(CC1)CN(S(=O)(=O)c1ccc(C(F)F)cc1)c1ccccc12 [Compound I-208, N-(2-(1H-pyrazol-1-yl)ethyl)-1-((4-(difluoromethyl)phenyl)sulfonyl)spiro[indoline-3,4′-piperidine]-1′-carboxamide]
≤ 5.30 | Cn1cc(CNC(=O)N2CCC3(CC2)CN(S(=O)(=O)c2ccc(C(F)F)cc2)c2ccccc23)cn1 [Compound I-209, 1-((4-(difluoromethyl)phenyl)sulfonyl)-N-((1-methyl-1H-pyrazol-4-yl)methyl)spiro[indoline-3,4′-piperidine]-1′-carboxamide]
≤ 5.30 | O=C(NCC(F)(F)F)N1CCC2(CC1)CN(S(=O)(=O)c1ccc(C(F)F)cc1)c1ccccc12 [Compound I-201, 1-((4-(difluoromethyl)phenyl)sulfonyl)-N-(2,2,2-trifluoroethyl)spiro[indoline-3,4′-piperidine]-1′-carboxamide]
≤ 5.30 | CCn1cc(NC(=O)N2CCC3(CC2)CN(S(=O)(=O)c2ccc(C(F)F)cc2)c2ccccc23)cn1 [Compound I-207, 1-((4-(difluoromethyl)phenyl)sulfonyl)-N-(1-ethyl-1H-pyrazol-4-yl)spiro[indoline-3,4′-piperidine]-1′-carboxamide]
≤ 5.30 | CN(C(=O)C1CCC2(CC1)CN(S(=O)(=O)c1ccc(C(F)F)cc1)c1ccccc12)c1ccnn1C (stereo not shown) [Compound I-243, 1′-((4-(difluoromethyl)phenyl)sulfonyl)-N-methyl-N-(1-methyl-1H-pyrazol-5-yl)spiro[cyclohexane-1,3′-indoline]-4-carboxamide]
≤ 5.30 | O=C(NCCC(F)(F)F)N1CCC2(CC1)CN(S(=O)(=O)c1ccc(C(F)F)cc1)c1ccccc12 [Compound I-214, 1-((4-(difluoromethyl)phenyl)sulfonyl)-N-(3,3,3-trifluoropropyl)spiro[indoline-3,4′-piperidine]-1′-carboxamide]
≤ 5.30 | Cc1cc(CNC(=O)N2CCC3(CC2)CN(S(=O)(=O)c2ccc(C(F)F)cc2)c2ccccc23)on1 [Compound I-212]
≤ 5.30 | O=C(NCC1CCOC1)N1CCC2(CC1)CN(S(=O)(=O)c1ccc(C(F)F)cc1)c1ccccc12 (stereo not shown) [Compound I-204]

Structure (SMILES) | pEC50
CN(C)S(=O)(=O)c1ccc(S(=O)(=O)N2CC3(CCN(Cc4ccccc4)CC3)c3c(F)cccc32)cc1 [Compound I-155, 4-((1′-benzyl-4-fluorospiro[indoline-3,4′-piperidin]-1-yl)sulfonyl)-N,N-dimethylbenzenesulfonamide] | ≥ 6.30
